Data as given in patent US20250353891A1 (MEDIMMUNE LIMITED, priority 2022, published 2025).
Starred links: 1 amine or outer side, 2 acyl side, 3 side chain; linkers in the order of their positions; H or OH if unused. Non-standard residues stand in square brackets, D forms with d. Residues, ends and D or L forms follow the SMILES beside them. Groups on a side chain read outwards from the residue. *: point of attachment. C20 diacid = O=C(O)CCCCCCCCCCCCCCCCCCC(=O)*; C18 diacid = O=C(O)CCCCCCCCCCCCCCCCC(=O)*; γGlu = O=C(O)[C@H](CCC(=O)[*:2])N[*:1]; αMeF = C[C@](N)(Cc1ccccc1)C(=O)O; AEEA = NCCOCCOCC(=O)O; Aib = CC(C)(N)C(=O)O

Columns and labels:
[1] = biological target: human glucagon receptor (hGCGR) (Homo sapiens, UniProt P47871); assay: cAMP production (HTRF) in CHO cells expressing hGCGR; type: cell-based; parameters: expressed in transfected cells; conditions: Table 6, peptides modified at position 17; cAMP in CHO hGCGR cells; geometric mean; read-out: hGluc-R EC50
Method: (§1) Cells were re-suspended in assay buffer at a batch-dependent optimized concentration (typically hGLP-1R cells at 1×10^5 cells/mL, hGCGR cells at 2×10^5 cells/mL).
(§2) Cells were added to the assay plate using a multidrop dispenser and incubated at room temperature for 30 minutes before measuring the cAMP level using a cAMP dynamic 2 homogeneous time resolved Fluorescence (HTRF) kit (Cisbio Bioassays #62AM4PEJ) following the two-step protocol as per manufacturer's recommendations. In brief, anti-cAMP cryptate (donor fluorophore) and cAMP-d2 (acceptor fluorophore) were made up separately by diluting each 1 in 20 in conjugate and lysis buffer provided in the kit. Anti-CAMP cryptate was added to all wells of the assay plate, followed by cAMP-d2 added to all wells except non-specific binding (NSB) wells (to which conjugate and lysis buffer was added).
(§3) Data was transformed to % Delta F as described in the manufacturer's guidelines and analyzed by 4-parameter logistic fit to determine EC50 values.

[2] = biological target: human GLP-1 receptor (hGLP-1R) (Homo sapiens, UniProt P43220); assay: cAMP production (HTRF) in CHO cells expressing hGLP-1R; type: cell-based; parameters: expressed in transfected cells; conditions: for EC50: Table 6, peptides modified at position 17, cAMP in CHO hGLP-1R cells, geometric mean, read-out: hGLP-1R EC50; for % Relative Potency Ratio: % GLP-1R activity relative to GLP-1 / % GlucR activity relative to glucagon
Method: as §1, §2, §3

Sequence of human GLP-1 receptor (hGLP-1R) (P43220 24-463): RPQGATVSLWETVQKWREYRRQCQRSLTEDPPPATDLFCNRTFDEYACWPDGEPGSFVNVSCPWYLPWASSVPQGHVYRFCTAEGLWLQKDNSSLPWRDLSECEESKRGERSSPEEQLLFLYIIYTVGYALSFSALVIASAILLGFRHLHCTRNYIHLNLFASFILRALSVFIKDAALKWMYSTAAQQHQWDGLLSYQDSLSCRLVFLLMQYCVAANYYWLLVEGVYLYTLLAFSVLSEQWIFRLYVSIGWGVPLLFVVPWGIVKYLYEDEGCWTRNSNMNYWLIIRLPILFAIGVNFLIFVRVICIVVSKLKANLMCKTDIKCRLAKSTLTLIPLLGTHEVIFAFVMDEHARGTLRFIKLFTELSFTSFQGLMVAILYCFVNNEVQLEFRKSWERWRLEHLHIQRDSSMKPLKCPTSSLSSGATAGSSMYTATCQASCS
Sequence of human glucagon receptor (hGCGR) (P47871 26-477): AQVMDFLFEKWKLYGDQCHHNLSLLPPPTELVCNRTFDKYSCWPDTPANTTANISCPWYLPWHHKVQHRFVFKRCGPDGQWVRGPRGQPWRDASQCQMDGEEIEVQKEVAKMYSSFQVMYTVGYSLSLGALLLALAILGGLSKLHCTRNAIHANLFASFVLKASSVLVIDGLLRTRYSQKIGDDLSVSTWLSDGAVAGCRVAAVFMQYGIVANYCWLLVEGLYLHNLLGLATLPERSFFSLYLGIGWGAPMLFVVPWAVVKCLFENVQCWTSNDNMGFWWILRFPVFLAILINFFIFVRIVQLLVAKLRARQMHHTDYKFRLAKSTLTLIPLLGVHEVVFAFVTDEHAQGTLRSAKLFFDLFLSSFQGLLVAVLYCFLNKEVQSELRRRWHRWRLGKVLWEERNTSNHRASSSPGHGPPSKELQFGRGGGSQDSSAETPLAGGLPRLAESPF

## CC[C@H](C)[C@H](NC(=O)C(C)(C)NC(=O)[C@H](CCC(N)=O)NC(=O)[C@@H](NC(=O)[C@](C)(Cc1ccccc1)NC(=O)[C@H](CC(=O)O)NC(=O)[C@H](CCC(N)=O)NC(=O)[C@H](C)NC(=O)[C@H](C)NC(=O)[C@H](CCCCNC(=O)COCCOCCNC(=O)COCCOCCNC(=O)CC[C@H](NC(=O)CCCCCCCCCCCCCCCCC(=O)O)C(=O)O)NC(=O)[C@H](CO)NC(=O)[C@H](CC(=O)O)NC(=O)[C@H](CC(C)C)NC(=O)C(C)(C)NC(=O)[C@H](CCCCN)NC(=O)[C@H](CO)NC(=O)[C@@H](NC(=O)[C@H](CC(=O)O)NC(=O)[C@H](CO)NC(=O)[C@@H](NC(=O)[C@](C)(Cc1ccccc1)NC(=O)[C@H](CO)NC(=O)CNC(=O)[C@H](CCC(N)=O)NC(=O)[C@H](CO)NC(=O)[C@@H](N)Cc1c[nH]cn1)[C@@H](C)O)C(C)C)C(C)C)C(=O)N[C@@H](C)C(=O)N[C@@H](CC(N)=O)C(N)=O [Peptide 1] (H-HSQGS[αMeF]TSDVSK[Aib]LDSK([AEEA-AEEA-γGlu-C18 diacid])AAQD[αMeF]VQ[Aib]IAN-NH2; N-terminus assumed)
[1]
  EC50: > 27.1 nM
[2]
  EC50: 3.2 nM

## CC[C@H](C)[C@H](NC(=O)[C@H](Cc1c[nH]c2ccccc12)NC(=O)[C@H](CCC(N)=O)NC(=O)[C@@H](NC(=O)[C@](C)(Cc1ccccc1)NC(=O)[C@H](CC(=O)O)NC(=O)[C@H](CCC(N)=O)NC(=O)[C@H](C)NC(=O)[C@H](C)NC(=O)[C@H](CCCCNC(=O)COCCOCCNC(=O)COCCOCCNC(=O)CC[C@H](NC(=O)CCCCCCCCCCCCCCCCCCC(=O)O)C(=O)O)NC(=O)[C@H](CO)NC(=O)[C@H](CC(=O)O)NC(=O)[C@H](CC(C)C)NC(=O)[C@](C)(Cc1ccccc1)NC(=O)[C@H](CCCCN)NC(=O)[C@H](CO)NC(=O)[C@@H](NC(=O)[C@H](CC(=O)O)NC(=O)[C@H](CO)NC(=O)[C@@H](NC(=O)[C@](C)(Cc1ccccc1)NC(=O)[C@H](CO)NC(=O)CNC(=O)[C@H](CCC(N)=O)NC(=O)[C@H](CO)NC(=O)[C@@H](N)Cc1c[nH]cn1)[C@@H](C)O)C(C)C)C(C)C)C(=O)N[C@@H](C)C(=O)N[C@@H](CC(N)=O)C(=O)N[C@H](C(N)=O)[C@@H](C)O [Peptide 2] (H-HSQGS[αMeF]TSDVSK[αMeF]LDSK([AEEA-AEEA-γGlu-C20 diacid])AAQD[αMeF]VQWIANT-NH2; N-terminus assumed)
[1]
  EC50: 4.19 nM
[2]
  EC50: 1.28 nM
[2]; Table 6
  % Relative Potency Ratio: 6.5

## CC(C)C[C@H](NC(=O)[C@H](Cc1c[nH]c2ccccc12)NC(=O)[C@H](CCC(N)=O)NC(=O)[C@@H](NC(=O)[C@H](Cc1ccccc1)NC(=O)[C@H](CC(=O)O)NC(=O)[C@H](CCC(N)=O)NC(=O)[C@H](C)NC(=O)[C@H](CCCNC(=N)N)NC(=O)[C@H](CCCCNC(=O)COCCOCCNC(=O)COCCOCCNC(=O)CC[C@H](NC(=O)CC[C@H](NC(=O)CCCCCCCCCCCCCCCCC(=O)O)C(=O)O)C(=O)O)NC(=O)[C@H](CO)NC(=O)[C@H](CC(=O)O)NC(=O)[C@H](CC(C)C)NC(=O)[C@](C)(Cc1ccccc1)NC(=O)[C@H](CCCCN)NC(=O)[C@H](CO)NC(=O)[C@@H](NC(=O)[C@H](CC(=O)O)NC(=O)[C@H](CO)NC(=O)[C@@H](NC(=O)[C@H](Cc1ccccc1)NC(=O)[C@@H](NC(=O)CNC(=O)[C@H](CCC(N)=O)NC(=O)C(C)(C)NC(=O)[C@@H](N)Cc1c[nH]cn1)[C@@H](C)O)[C@@H](C)O)C(C)C)C(C)C)C(=O)N[C@@H](CC(C)C)C(=O)NC(C)(C)C(=O)N[C@H](C(N)=O)[C@@H](C)O [Peptide 463] (H-H[Aib]QGTFTSDVSK[αMeF]LDSK([AEEA-AEEA-γGlu-γGlu-C18 diacid])RAQDFVQWLL[Aib]T-NH2; N-terminus assumed)
[2]
  EC50: 0.274 nM

## H(Aib)HGS(αMePhe)TSDK(O20C-O2OC-γE-γE-C20diacid)10SK(αMePhe)LDSRAAQD(αMePhe)VQ(Aib)IANT-amide [Peptide 391]
[2]
  % Relative Potency Ratio: 49.1
